Experiments:
[1] = system: ApoB secretion, HepG2 cells; test: Quantification of the secretion of ApoB (HepG2 cells, immunoprecipitation, scintillation counting); assay type: cell-based; conditions: 24 hours of incubation; for IC50: Homo sapiens, HepG2, 24 h
In short: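 HepG2 cells in MEM Rega 3 with 10% FCS were treated at 70% confluency with compound (DMSO 0.4% final) for 24 h. Medium ApoB was immunoprecipitated with sheep anti-apoB then rabbit anti-sheep antibody (24 h each, 8° C), and pellet radioactivity was counted by liquid scintillation to give IC50.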

[2] = biological target: MTP (Homo sapiens, UniProt P55157); test: MTP assay (triglyceride transfer from donor to acceptor vesicles); assay type: biochemical; conditions: MTP activity, 37° C.
Procedure: MTP activity was measured using an assay similar to one described by J. R. Wetterau and D. B. Zilversmit in Chemistry and Physics of Lipids (1985) 38, 205-222. In order to prepare the donor and acceptor vesicles, the appropriate lipids in chloroform were put into a glass test tube and dried under a stream of nitrogen. A buffer containing 15 mM Tris-HCl (pH 7.5), 1 mM ethylenediamine tetra-acetic acid, 40 mM NaCl, 0.02% NaN3 (assay buffer) was added to the dried lipid. The mixture was vortexed briefly and the lipids were then allowed to hydrate for 20 minutes on ice. Vesicles were then prepared by bath sonication (using a Branson 2200 device) at room temperature for at most 15 minutes. Butylated hydroxytoluene was included in all vesicle preparations at a concentration of 0.1%. The lipid transfer assay mixture contained donor vesicles (40 nmole phosphatidylcholine, 7.5 mole % cardiolipin and 0.25 mole % glycerol tri[1-^14C]-oleate), acceptor vesicles (240 nmol phosphatidylcholine) and 5 mg bovine serum albumin in a total volume of 675 μl in a 1.5 ml microcentrifuge tube. Test compounds were added dissolved in dimethylsulfoxide (0.13% final concentration). After 5 minutes of pre-incubation at 37° C., the reaction was started by the addition of MTP in 100 μl of a dialysis buffer. The reaction was stopped by the addition of 400 μl […] (DEAE)-52 cellulose (Sephadex) pre-equilibrated in 15 mM Tris-HCl (pH 7.5), 1 mM ethylenediamine tetra-acetic acid and 0.02% NaN3 (1:1 volume/volume). The mixture was agitated for 4 minutes and centrifuged for 2 minutes at maximum speed in an Eppendorf centrifuge (4° C.) to pellet the DEAE-52-bound donor vesicles. An aliquot of the supernatant containing the acceptor liposomes was counted and the [^14C]-counts were used to calculate the percent triglyceride transfer from donor to acceptor vesicles.
Resulting IC50 values are enumerated in Table C.2 for some of the above-referred compounds.

Chain of MTP (P55157 19-894, species assumed): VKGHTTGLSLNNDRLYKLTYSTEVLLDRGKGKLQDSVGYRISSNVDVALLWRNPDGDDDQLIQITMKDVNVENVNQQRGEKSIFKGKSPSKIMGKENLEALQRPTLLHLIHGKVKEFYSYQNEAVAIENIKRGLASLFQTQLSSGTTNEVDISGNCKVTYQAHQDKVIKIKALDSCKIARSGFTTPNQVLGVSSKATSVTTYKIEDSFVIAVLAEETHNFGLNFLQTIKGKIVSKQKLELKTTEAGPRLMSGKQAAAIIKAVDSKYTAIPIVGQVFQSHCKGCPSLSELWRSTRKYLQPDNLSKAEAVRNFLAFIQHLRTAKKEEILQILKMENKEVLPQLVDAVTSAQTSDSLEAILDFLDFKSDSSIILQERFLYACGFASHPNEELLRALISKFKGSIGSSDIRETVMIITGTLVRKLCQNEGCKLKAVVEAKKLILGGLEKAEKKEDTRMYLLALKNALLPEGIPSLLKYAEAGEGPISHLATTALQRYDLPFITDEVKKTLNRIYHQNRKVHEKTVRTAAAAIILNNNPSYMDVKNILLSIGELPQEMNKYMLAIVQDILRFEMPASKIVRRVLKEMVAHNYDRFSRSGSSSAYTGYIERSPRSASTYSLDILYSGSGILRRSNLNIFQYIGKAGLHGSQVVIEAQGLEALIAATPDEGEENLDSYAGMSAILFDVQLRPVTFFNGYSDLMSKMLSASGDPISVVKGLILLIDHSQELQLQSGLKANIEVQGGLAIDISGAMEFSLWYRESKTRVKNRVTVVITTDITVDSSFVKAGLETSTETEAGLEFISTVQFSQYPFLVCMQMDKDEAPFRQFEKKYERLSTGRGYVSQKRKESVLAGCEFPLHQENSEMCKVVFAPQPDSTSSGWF
Chain of MTP (P07237 18-508 partner, species assumed): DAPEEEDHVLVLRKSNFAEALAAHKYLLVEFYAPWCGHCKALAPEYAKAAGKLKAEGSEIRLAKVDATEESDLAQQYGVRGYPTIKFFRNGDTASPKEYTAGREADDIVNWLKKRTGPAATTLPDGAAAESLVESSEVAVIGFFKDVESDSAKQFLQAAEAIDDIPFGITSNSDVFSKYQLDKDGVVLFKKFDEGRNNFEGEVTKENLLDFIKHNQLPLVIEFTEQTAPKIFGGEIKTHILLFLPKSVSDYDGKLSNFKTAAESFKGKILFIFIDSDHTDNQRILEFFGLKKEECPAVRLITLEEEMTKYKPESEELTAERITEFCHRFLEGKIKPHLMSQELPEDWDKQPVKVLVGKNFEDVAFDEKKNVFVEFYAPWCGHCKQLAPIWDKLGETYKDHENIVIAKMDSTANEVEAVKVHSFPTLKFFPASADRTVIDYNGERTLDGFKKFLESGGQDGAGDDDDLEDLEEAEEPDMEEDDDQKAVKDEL

IC50 [1] [nM]	IC50 [2] [nM]	melting point [°C]	pIC50 ([1]; listed as 39)	pIC50 [1]	Structure (SMILES)
7.89	13.7	208			O=C(Nc1ccc(N2CCN(C(C(=O)NCC(F)(F)F)c3ccccc3)CC2)cc1)c1ccccc1-c1ccc(C(F)(F)F)cc1 (centres unmarked) [Co. No. 1, N-[4-[4-[2-oxo-1-phenyl-2-[(2,2,2-trifluoroethyl)amino]ethyl]-1-piperazinyl]-phenyl]-4′-(trifluoromethyl)-[1,1′-biphenyl]-2-carboxamide]
7.89	5.38	123			CCNC(=O)C(c1ccccc1)N1CCN(c2ccc(NC(=O)c3ccccc3-c3ccc(C(F)(F)F)cc3)cc2)CC1 (centres unmarked) [Co. No. 54, N-[4-[4-[2-(ethylamino)-2-oxo-1-phenylethyl]-1-piperazinyl]phenyl]-4′-(trifluoromethyl)-[1,1′-biphenyl]-2-carboxamide]
	12	151	7.791		COC(=O)C(c1ccccc1)C1CCN(c2ccc(NC(=O)c3ccccc3-c3ccc(C(F)(F)F)cc3)cc2)CC1 (stereo not drawn) [Co. No. 39, methyl α-phenyl-1-[4-[[[4′-(trifluoromethyl)-[1,1′-biphenyl]-2-yl]carbonyl]amino]phenyl]-4-piperidineacetate]
294		125			COC(=O)C(c1ccccc1)N1CCN(c2ccc(NC(=O)c3ccccc3-c3ccccc3)cc2)CC1 (stereo not drawn) [Co. No. 52, methyl 4-[4-[([1,1′-biphenyl]-2-ylcarbonyl)amino]phenyl]-α-phenyl-1-piperazineacetate]
106		202			O=C(Nc1ccc(N2CCC(C(C(=O)NCc3ccccc3)c3ccccc3)CC2)cc1)c1cccc2c1-c1ccccc1C2 (centres unmarked) [Co. No. 2]
		194			COC(=O)C(c1ccccc1)N1CCN(c2ccc(NC(=O)c3ccccc3-c3cccnc3)cc2)CC1 (centres unmarked) [Co. No. 270]
	52.6	158		7.409	COC(=O)C(c1ccccc1)N1CCC(c2ccc(NC(=O)c3ccccc3-c3ccc(C(F)(F)F)cc3)cc2)CC1 (single isomer, unassigned) [Co. No. 229]
≤ 30	4.27				CCCNC(=O)C(c1ccccc1)N1CCN(c2ccc(NC(=O)c3ccccc3-c3ccc(C(F)(F)F)cc3)cc2)CC1 (centres unmarked) [Co. No. 55]
3.85	4.79				O=C(Nc1ccc(N2CCN(C(C(=O)NCc3ccccc3)c3ccccc3)CC2)cc1)c1ccccc1-c1ccc(C(F)(F)F)cc1 (centres unmarked) [Co. No. 61]
64.6	10.5	151			CCCOC(=O)C(c1ccccc1)N1CCN(c2ccc(NC(=O)c3ccccc3-c3ccc(C(F)(F)F)cc3)cc2)CC1 (centres unmarked) [Co. No. 62, propyl-phenyl-4-[4-[[[4′-(trifluoromethyl)[1,1′-biphenyl]-2-yl]carbonyl]amino]phenyl]-1-piperazineacetate]
< 30	25				COC(=O)C(c1ccccc1)C1CCN(c2ccc(NC(=O)c3ccccc3-c3ccc(C(C)C)cc3)cc2)CC1 (centres unmarked) [Co. No. 232]
178		195			CCOC(=O)C(CN1CCN(c2ccc(NC(=O)c3ccccc3-c3ccc(C(F)(F)F)cc3)cc2)CC1)c1ccccc1 (centres unmarked) [Co. No. 81, ethylphenyl-4-[4-[[[4′-(trifluoromethyl)[1,1′-biphenyl]-2-yl]carbonyl]amino]-phenyl]-1-piperazine propanoate]
		150			COC(=O)C(c1ccccc1)N1CCN(c2ccc(NC(=O)c3ccccc3-c3ccsc3)cc2)CC1 (centres unmarked) [Co. No. 267]
21.6	8.65	138			COC(=O)C(c1ccccc1)N1CCC(c2ccc(NC(=O)c3ccccc3-c3ccc(C(F)(F)F)cc3)cc2)CC1 (centres unmarked) [Co. No. 41, methylphenyl-4-[4-[[[4′-(trifluoromethyl)[1,1′-biphenyl]-2-yl]carbonyl]amino]phenyl]-1-piperidineacetate]
≤ 30	15.9				CC(C)CNC(=O)C(c1ccccc1)N1CCN(c2ccc(NC(=O)c3ccccc3-c3ccc(C(F)(F)F)cc3)cc2)CC1 (centres unmarked) [Co. No. 58]
241	> 3000				O=C(Nc1ccc(N2CCC(C(C(=O)NCc3ccccc3)c3ccccc3)CC2)cc1)c1ccccc1Cc1ccccc1 (centres unmarked) [Co. No. 10]
11.4	8.38				CCCCCNC(=O)C(c1ccccc1)N1CCC(c2ccc(NC(=O)c3ccccc3-c3ccc(C(F)(F)F)cc3)cc2)CC1 (centres unmarked) [Co. No. 75]
